Several values for one entry are separate records, joined by “and”; a condition that tells them apart may be missing. Equal entries are not always repeated.
Assay: wn = mass fraction of the nth substance listed
Conditions: Liquid, w2 = 0.5

CC(F)(F)F [1,1,1-trifluoroethane] + FC(F)C(F)(F)F
Conditions | viscosity
253.26 K, 2000 kPa | 0.237 mPa·s
253.26 K, 2010 kPa | 0.2374 mPa·s
253.26 K, 2090 kPa | 0.2377 mPa·s
253.26 K, 2170 kPa | 0.2378 mPa·s
253.26 K, 2180 kPa | 0.2371 mPa·s
253.26 K, 2220 kPa | 0.2379 mPa·s
253.26 K, 3370 kPa | 0.2426 mPa·s
253.26 K, 3380 kPa | 0.2427 mPa·s
253.26 K, 3390 kPa | 0.2427 mPa·s
253.26 K, 3410 kPa | 0.2425 mPa·s
253.26 K, 4930 kPa | 0.2479 mPa·s
253.26 K, 4960 kPa | 0.2479 mPa·s
253.26 K, 4970 kPa | 0.248 mPa·s
253.26 K, 4990 kPa | 0.2482 mPa·s
253.26 K, 5020 kPa | 0.2483 mPa·s
253.26 K, 5070 kPa | 0.2487 mPa·s
253.26 K, 7440 kPa | 0.2574 mPa·s
253.26 K, 7500 kPa | 0.2576 mPa·s
253.26 K, 7620 kPa | 0.258 mPa·s
253.26 K, 7720 kPa | 0.2587 mPa·s
263.23 K, 1990 kPa | 0.2076 mPa·s
263.23 K, 2020 kPa | 0.2074 mPa·s
263.23 K, 2070 kPa | 0.2081 mPa·s
263.23 K, 2120 kPa | 0.2077 mPa·s
263.23 K, 3660 kPa | 0.2139 mPa·s
263.23 K, 3670 kPa | 0.2137 mPa·s and 0.2139 mPa·s
263.23 K, 3680 kPa | 0.2138 mPa·s and 0.2137 mPa·s
263.23 K, 3720 kPa | 0.214 mPa·s
263.23 K, 3780 kPa | 0.214 mPa·s
263.23 K, 4690 kPa | 0.2177 mPa·s
263.23 K, 4990 kPa | 0.2192 mPa·s
263.23 K, 5010 kPa | 0.2195 mPa·s
263.23 K, 7000 kPa | 0.2258 mPa·s
263.23 K, 7050 kPa | 0.2257 mPa·s
263.23 K, 7190 kPa | 0.2262 mPa·s
263.23 K, 7220 kPa | 0.227 mPa·s
273.24 K, 2150 kPa | 0.1827 mPa·s
273.24 K, 2160 kPa | 0.1825 mPa·s
273.24 K, 2190 kPa | 0.1826 mPa·s and 0.1823 mPa·s
273.24 K, 2230 kPa | 0.1829 mPa·s
273.24 K, 2260 kPa | 0.1829 mPa·s
273.24 K, 2270 kPa | 0.1829 mPa·s
273.24 K, 3450 kPa | 0.1878 mPa·s and 0.1876 mPa·s
273.24 K, 3470 kPa | 0.1877 mPa·s
273.24 K, 3480 kPa | 0.1873 mPa·s
273.24 K, 3500 kPa | 0.1878 mPa·s
273.24 K, 5030 kPa | 0.1923 mPa·s
273.24 K, 5040 kPa | 0.1925 mPa·s
273.24 K, 5060 kPa | 0.1925 mPa·s
273.24 K, 7360 kPa | 0.2011 mPa·s
273.24 K, 7450 kPa | 0.2008 mPa·s
273.24 K, 7520 kPa | 0.2015 mPa·s
273.24 K, 9710 kPa | 0.2103 mPa·s
273.24 K, 9880 kPa | 0.2106 mPa·s and 0.2104 mPa·s
283.34 K, 2000 kPa | 0.1592 mPa·s
283.34 K, 2060 kPa | 0.1592 mPa·s
283.34 K, 2120 kPa | 0.1591 mPa·s
283.34 K, 2160 kPa | 0.1591 mPa·s
283.34 K, 2220 kPa | 0.1593 mPa·s
283.34 K, 2230 kPa | 0.1592 mPa·s and 0.1596 mPa·s
283.34 K, 2250 kPa | 0.1596 mPa·s
283.34 K, 2260 kPa | 0.1595 mPa·s
283.34 K, 2270 kPa | 0.1597 mPa·s
283.34 K, 3720 kPa | 0.165 mPa·s
283.34 K, 3770 kPa | 0.1651 mPa·s and 0.1654 mPa·s
283.34 K, 3820 kPa | 0.1654 mPa·s
283.34 K, 3860 kPa | 0.1655 mPa·s
283.34 K, 3880 kPa | 0.1657 mPa·s
283.34 K, 4970 kPa | 0.1693 mPa·s
283.34 K, 5000 kPa | 0.1693 mPa·s
283.34 K, 5030 kPa | 0.1696 mPa·s
283.34 K, 5040 kPa | 0.1695 mPa·s
283.34 K, 7600 kPa | 0.178 mPa·s
283.34 K, 7640 kPa | 0.1783 mPa·s
283.34 K, 7680 kPa | 0.1784 mPa·s
283.34 K, 9750 kPa | 0.1851 mPa·s
283.34 K, 9860 kPa | 0.1854 mPa·s
283.34 K, 9900 kPa | 0.1857 mPa·s
283.34 K, 9920 kPa | 0.1857 mPa·s
283.34 K, 9930 kPa | 0.1856 mPa·s
293.33 K, 1920 kPa | 0.1394 mPa·s
293.33 K, 1940 kPa | 0.1392 mPa·s
293.33 K, 1970 kPa | 0.1396 mPa·s
293.33 K, 2020 kPa | 0.1394 mPa·s
293.33 K, 3570 kPa | 0.145 mPa·s
293.33 K, 3690 kPa | 0.1454 mPa·s
293.33 K, 3720 kPa | 0.1455 mPa·s
293.33 K, 3750 kPa | 0.1457 mPa·s
293.33 K, 4910 kPa | 0.1503 mPa·s and 0.15 mPa·s
293.33 K, 5000 kPa | 0.1506 mPa·s
293.33 K, 5030 kPa | 0.1506 mPa·s
293.33 K, 7510 kPa | 0.1585 mPa·s
293.33 K, 7540 kPa | 0.1584 mPa·s
293.33 K, 7560 kPa | 0.1584 mPa·s
293.33 K, 9770 kPa | 0.1667 mPa·s
293.33 K, 9810 kPa | 0.1669 mPa·s
293.33 K, 9850 kPa | 0.1666 mPa·s
293.33 K, 9880 kPa | 0.1669 mPa·s
293.33 K, 9930 kPa | 0.1672 mPa·s
